{"source": "patent US20110263454A1", "about": "“Methods of Identifying Functional Characteristics of Promoters, Transcription Modifying Proteins and Transcription Modulating Agents” (Salk Institute for Biological Studies, priority 2008, published 2011)", "key": {"TRAP expression": {"tested_on": "TRAP expression", "conditions": "human peripheral mononuclear cells; Reddy 1996; cited from earlier work"}, "pre-adipocytes": {"tested_on": "pre-adipocytes", "conditions": "treatment of pre-adipocytes; Hutley 2004, Newell 2006; cited from earlier work"}, "[1]": {"tested_on": "FGF1A mRNA in white adipose tissue (WAT)", "assay": "FGF1A mRNA in white adipose tissue after PPARγ ligand treatment", "assay_type": "in vivo", "conditions": "fed mice, oral 5 mg/kg for 3 days", "procedure": "To test this hypothesis the expression of FGF1A in response to feeding, fasting and PPARγ ligand treatment was determined (FIG. 47, left panel)."}}}
{"compound": "ferric protoporphyrin IX [hemin]", "values": [{"measurement": "TRAP expression at the transcriptional level", "setting": "TRAP expression", "value": "inhibited"}]}
{"compound": "recombinant FGF1: recombinant FGF1, fibroblast growth factor polypeptide", "values": [{"measurement": "effect on pre-adipocytes", "setting": "pre-adipocytes", "value": "increased proliferation and adipogenesis"}]}
{"compound": "CN(CCOc1ccc(CC2SC(=O)NC2=O)cc1)c1ccccn1", "note": "(stereo not drawn) [BRL, BRL49653 (Rosiglitazone)]", "values": [{"measurement": "mRNA levels of FGF1A", "setting": "[1]", "value": "significantly increased"}]}
